The test system of one series is rats. Nature of the series: Tolerability / toxicity in rats (FIGS. 8A, 8B). The format is in vivo.
For another series, the system named is LDL-c. The experiment in a line: LDL-c levels in LDLR knockout mice after mRNA encoding the LDL receptor (FIG. 9B). The format is in vivo, mouse. The note with it: mRNAs encoding the LDL receptor, Compound 11 at 0.5 and 1 mpk (FIG. 9B).
The subject of a further series is hEPO. Nature of the series: hEPO expression in rats after i.v. administration of nanoparticle compositions (FIGS. 8A, 8B). The format is in vivo, rat. The note with it: rats, 2 mpk, i.v. administration (FIG. 8A). The text has this: PBS (phosphate buffered saline) is used as control. FIG. 8A compares the hEPO concentration after administration of nanoparticle compositions containing Compound 23, Compound 11, KL22, and MC3 at 2 mpk, i.v. administration. […] FIG. 8B illustrates the results of a dose response study using Compound 20, KL22, and MC3 at dose of 0.2, 0.5 and 1 mpk. […] In FIG. 8A, the numbers 1-5 refer to compositions containing the following: 1: Compound 23, 2: Compound 11, 3: KL22; 4: MC3; 5: PBS. In FIG. 8B, the numbers […] refer to compositions containing the following: 1: Compound 20, 0.2 mpk; 2: Compound 20, 0.5 mpk; 3: Compound 20, 1 mpk; 4: KL22, 0.2 mpk; 5: KL22, 0.5 mpk; 6: KL22, 1 mpk; 7: MC3, 0.2 mpk; 8: MC3, 0.5 mpk; 9: MC3, 1 mpk; 10: PBS.

The next series has as its system luciferase. Nature of the series: Luciferase expression in LDLR −/− knockout and wild-type mice (FIG. 9A). It is filed as in vivo, mouse. The note with it: 0.05 mpk, 0.25 mpk and 0.5 mpk (FIG. 9A). The source says: FIG. 9A is a bar graph showing expression of luciferase induced by administration of nanoparticle compositions including Compound 11 at dosages of 0.05 mpk, 0.25 mpk, and 0.5 mpk to LDLR −/− knockout and wild-type mice.

Series [1] relates to hEPO expression. Nature of the series: Expression of hEPO in rats induced by nanoparticle compositions. It is filed as in vivo, S.D. rats. The note with it: rats, 3, 6 and 24 hours. Here is the method: Formulations were administered intravenously, subcutaneously or intramuscularly to rats (n=3 or 6) at a dosage of 0.2 mg/kg or 0.5 mg/kg (mpk) and hEPO levels measured at 3, 6, and 24 hour time points. After the 48 hour time point, livers and spleens were harvested and frozen.
(§1) In contrast, hEPO expression in rats induced by administration of a nanoparticle composition including a compound according to one of formulae (I), (Ia1)-(Ia6), (Ib), (II), (IIa), (III), and (IIIa) was substantially […] than that measured for MC3. […] Tables 7c and 7d show additional protein expressions and clearance data from compositions with various compounds disclosed herein as compared to with MC3. Tables 7e, 7f and 7g show hEPO expression data in CD-1 mice at a dose of 0.5 mpk.

Another series relates to luciferase expression. Nature of the series: Expression of Luc in different organs (liver, lung, spleen, femur), bioluminescence. The format is in vivo. The note with it: mice, intravenous, 0.5 mpk, 6 hours. Here is the method:
The efficacy of the nanoparticle compositions presented in Tables 1, la, 17-1, 19-1, 20-1 and 21-1 was further evaluated by measuring the expression of modified luciferase in the liver, lung, spleen, and femur upon administration of a given composition. Formulations were administered intravenously to mice (n=3) at a dosage of 0.5 mpk and bioluminescence measured after 6 hours. The standard MC3 formulation and a PBS control were also tested.

The test system of a further series is Luc expression. Nature of the series: Luc expression in CD-1 mice compared with MC3. The note with it: ratio to MC3, Table 7a. The format is in vivo.
Source text: as §1

Series [2] can be described thus: Purity at start and after storage for 65 h at 25 °C or 37 °C. It is filed as physicochemical.
Series [3] in a line: Encapsulation efficiency of RNA (QUANT-IT RIBOGREEN RNA assay). The format is physicochemical. The method in brief: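 RiboGreen fluorescence (ex about 480, em about 520 nm) compares nanoparticle samples left intact versus disrupted with 2% Triton X-100 (15 min, 37° C). Samples are first brought to roughly 5 μg/mL in 10 mM Tris-HCl, 1 mM EDTA, pH 7.5; percent free RNA equals the blank-corrected intact/disrupted signal ratio.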

Series [4] relates to hEPO expression. Nature of the series: hEPO (miR126 + miR142) mRNA expression, Tables 8b-8e. The format is in vivo.
A short description of series [5]: Lipid clearance: % dose remaining, Tables 7c and 8b-8e (species not given). It is filed as in vivo.
Source text: as §1

The nature of series [6]: Particle size and polydispersity index of nanoparticle compositions (Zetasizer Nano ZS). The format is physicochemical. The protocol: A Zetasizer Nano ZS (Malvem Instruments Ltd, Malvem, Worcestershire, UK) can be used to determine the particle size, the polydispersity index (PDI) and the zeta potential of the nanoparticle compositions in 1×PBS in determining particle size and 15 mM PBS in determining zeta potential.

Series [7] is described as follows: Lipid clearance: % dose remaining in liver of CD-1 mice. It is filed as in vivo. The note with it: intravenous, 0.5 mg/kg, CD-1 mouse, Table 8a. The method in brief: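 CD-1 mice, 0.5 mpk dose of test-compound nanoparticle formulation; hEPO protein expression read out; clearance data also recorded.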
The test system of series [8] is hepatocytes and Kupffer cells. Nature of the series: Mouse liver immunohistochemistry (IHC) with GFP mRNA (FIGS. 11A, 11B). The note with it: CD-1 mouse liver, 6h after intravenous administration, 0.5 mpk (FIG. 11A). It is filed as in vivo. The source says: FIGS. 11A and 11B are a pair of images comparing the results of a mouse liver immunohistochemistry (IHC) using mRNA expressing green fluorescent protein (GFP) after administration of nanoparticle compositions containing Compound 4 and MC3.

In series [9] the test system is hEPO expression. The experiment in a line: hEPO expression in CD-1 mice compared with MC3. The format is in vivo. An outline of the steps: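 Mice (CD-1) received nanoparticle compositions formulated with the disclosed compounds at 0.5 mpk. Expressed hEPO was then quantified, and clearance was assessed alongside.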
[10] abbreviates: Table 1f, Formulated with lipid:Chol:DOPE:PEG 1 40:38.5:20:1.5.
Where [11] appears, read: Table 1e, row marked #: Formulated with lipid:Chol:PEG 1 50:47.5:2.5.
Setting [12] is: Table 1f, row marked #: Formulated with lipid:Chol:PEG 1 50:47.5:2.5.
The mark [13] stands for this setting: Table 1d, row marked #: Formulated with lipid:Chol:PEG 1 50:47.5:2.5.

In the case of `CCCCCCCCCCCCN(CCCCCCCCCCCC)CCN(CCCCCCCCCCCC)CC(=O)N1CCN(C(=O)CN(CCCCCCCCCCCC)CCCCCCCCCCCC)CC1` [Compound 11, 2-(Didodecylamino)-1-(4-(N-(2-(didodecylamino)ethyl)-N-dodecylglycyl)piperazin-1-yl)ethan-1-one], the tolerability entry with rats (2 mpk, i.v. (FIG. 8A), compared to KL22) is “improved tolerability as compared to KL22”. Also, in the series on LDL-c, the LDL-c levels entry is “found to drop”. Moreover, the “hEPO concentration after administration of nanoparticle compositions” value in the series on hEPO was “comparable to MC3”. Moreover, in the series with luciferase, the “LDLr dependence of luciferase expression” value is given as “LDLr independent lipid”.

As to `CCCCCCCCCCCCN(CCCCCCCCCCCC)CCN(CCCCCCCCCCCC)CCN1CCN(CCN(CCCCCCCCCCCC(=O)OC)CCCCCCCCCCCC(=O)OC)CC1` [Compound 16, Dimethyl 12,12′-((2-(4-(2-((2-(didodecylamino)ethyl)(dodecyl)amino)ethyl)piperazin-1-yl)ethyl)azanediyl)didodecanoate], in the series with hEPO expression [1], the “hEPO expression at each time point, rank among compositions of Table 6” value was “lowest hEPO expression”.

With `CCCCCCCCCCCCCCN(CCCCCCCCCCCCCC)CCN1CCN(CCN(CCCCCCCCC)CCN(CCCCCCCCC)CCCCCCCCC)CC1` [Compound 20, N^1-(2-(4-(2-(Ditetradecylamino)ethyl)piperazin-1-yl)ethyl)-N^1,N^2,N^2-trinonylethane-1,2-diamine], in the series on luciferase expression, the “total flux, rank among the compositions of Table 3” value is recorded as “highest total flux”.

As for `CCCCCCCCCCCCN(CCCCCCCCCCCC)CCN(CCCCCCCCCCCC)CCN1CCN(CCN(CCCCCCCCC)CCCCCCCCC)CC1` [Compound 23, N^1-(2-(4-(2-(Dinonylamino)ethyl)piperazin-1-yl)ethyl)-N^1,N^2,N^2-tridodecylethane-1,2-diamine], the toxicity entry with rats (2 mg/kg dose) was “toxic”. The “Lipid/MC3 Luc CD-1 (mice)” value in the series on Luc expression is “several fold higher”.

Regarding `CCCCCCCCCN(CCCCCCCCC)CCN(CCCCCCCCC)CC(=O)N1CCN(C(=O)CN(CCCCCCCCC)CCCCCCCC(=O)OC)CC1` [Compound 44, Methyl 8-((2-(4-(N-(2-(dinonylamino)ethyl)-N-nonylglycyl)piperazin-1-yl)-2-oxoethyl)(nonyl)amino)octanoate], in series [2] (after storage for 65 h at 25° C., no shaking), the “Purity % 25° C. no shaking t = 65 h” value was determined as 92%. The “Purity % 37° C. shaking t = 65 h” value in series [2] (after storage for 65 h at 37° C., shaking) turned out to be 91%. The “Purity % t = 0 h” value in series [2] (beginning of the study, 25° C.) is reported as 90%.

For `CCCCCCCCCN(CCCCCCCCC)CCN(CCCCCCCCC)CC(=O)OC(C)CC(C)OC(=O)CN(CCCCCCCCC)CCCCCCCCC` (centres unmarked) [Compound 189, 4-((N-(2-(Dinonylamino)ethyl)-N-nonylglycyl)oxy)pentan-2-yl dinonylglycinate], the “EE (%)” value in [3] (setting [10]) is on record as 98.3%. Also, the “AUC” value in the series on hEPO expression [4] (Table 8d) worked out at 1.15e+07 pg·h/mL. Besides, the “% Dose Remaining (liver, 24 h)” value in series [5] (Table 8d) came out at 91.63%. Besides, in [6] (setting [10]), the PDI was found to be 0.16 and the “Size (nm)” value is 70.1 nm.

On to `CCCCCC=CCC=CCCCCCCCCC(CCCCCCCCC=CCC=CCCCCC)OC(=O)CCCN(C)C` (centres unmarked) [MC3, heptatriaconta-6,9,28,31-tetraen-19-yl 4-(dimethylamino)butanoate, reference compound], for which the “EE (%)” value in [3] (setting [11]) amounted to 93.0%; in series [3] (setting [12]) it was 92.5%; in [3] (setting [13]), 84.1%. Also, the “AUC” value with hEPO expression [4] (Table 8c) came to 1.52e+07 pg·h/mL; with hEPO expression [4] (Table 8d) it was 6.95e+08 pg·h/mL. Besides, in the series on hEPO expression [4] (lipid:Chol:PEG 1 50:47.5:2.5, Table 8e), the “AUC (mIU/mL*h)” value is given as 2.24E+07 mIU/mL*h. For the same compound, the “% Dose Remaining 24 hr” value in [7] was 64.65%. Also, the “% Dose Remaining (liver, 24 h)” value is 58.41% in [5] (Table 8c) and 54.04% in [5] (Table 8d). Further, the “hEPO expression at each time point, rank among compositions of Table 6” value in the series with hEPO expression [1] was “highest hEPO expression”. Moreover, the “GFP protein expression in liver cell types (IHC)” value in series [8] is “observed in both hepatocytes and Kupffer cells”. Also, the PDI is 0.22 in series [6] (setting [11]), 0.26 in [6] (setting [12]) and 0.20 in series [6] (setting [13]). For the same compound, the “Size (nm)” value amounted to 109.0 nm in [6] (setting [11]), 129.7 nm in series [6] (setting [12]) and 105.0 nm in [6] (setting [13]). Besides, the “AUC (p/s*h) CD-1 mice 0.5 mpk” value with hEPO expression [9] (intramuscular, title: 0.01 mg/kg, Table 7f) turned out to be 27727 p/s*h; with hEPO expression [9] (subcutaneous, 0.5 mg/kg, Table 7g), 375994 p/s*h.

These data come from patent US12077501B2, “Compounds and compositions for intracellular delivery of agents” (ModernaTX, Inc., priority 2017, dated 2024).
